Data from DBAASP.
Converted amounts (≈) assume the structure as drawn.

Key:
Experiment in all cases: ≥ marks a high value that may be exact or a test limit, other limits are often not marked, values filed in µg/mL are converted to µM
[1] = tested on: Escherichia coli ATCC 25922
Escherichia coli UB1005 = tested on: Escherichia coli UB1005
[2] = tested on: Listeria monocytogenes CMCC 54004
[3] = tested on: Salmonella enterica subsp. enterica serovar Pullorum C79-13
[4] = tested on: Staphylococcus aureus ATCC 29213
[5] = tested on: Salmonella enterica subsp. enterica serovar Typhi CMCC 50071
[6] = tested on: Staphylococcus epidermidis ATCC 12228
[7] = tested on: Serratia marcescens ATCC 8100
Escherichia coli ML-35 = tested on: Escherichia coli ML-35
Bacillus megaterium Bm11 = tested on: Bacillus megaterium Bm11
[8] = tested on: Salmonella enterica subsp. enterica serovar Typhimurium ATCC 14028
Escherichia coli D21 = tested on: Escherichia coli D21
[9] = tested on: Candida albicans ATCC 90028
[10] = tested on: Enterococcus faecalis ATCC 4028
[11] = tested on: Pseudomonas aeruginosa ATCC 27853
[12] = tested on: Enterobacter cloacae ATCC 13047
[13] = tested on: Candida glabrata ATCC 90030
Candida krusei ATCC 6258 = tested on: Candida krusei ATCC 6258
[14] = tested on: Escherichia coli ATCC 11775
[15] = tested on: Staphylococcus aureus ATCC 12600
[16] = tested on: Micrococcus luteus ATCC 49732
[17] = tested on: Candida albicans ATCC 14053
Methylobacterium sp. = tested on: Methylobacterium sp.
Xanthomonas citri = tested on: Xanthomonas citri
[18] = tested on: Agrobacterium tumefaciens GV3101
[19] = tested on: Sinorhizobium meliloti USDA 1002
Bacillus subtilis = tested on: Bacillus subtilis
[20] = tested on: Staphylococcus aureus ATCC 25923
[21] = tested on: Staphylococcus epidermidis ATCC 51625
[22] = tested on: Staphylococcus aureus ATCC BAA-44
[23] = tested on: Klebsiella pneumoniae ATCC 13883
Escherichia coli = tested on: Escherichia coli
[24] = tested on: Streptococcus pyogenes ATCC 19615
[25] = tested on: Enterococcus faecalis ATCC 29212
[26] = tested on: Enterococcus faecium ATCC 19434
[27] = tested on: Candida parapsilosis ATCC 22019
[28] = tested on: Malassezia furfur KCTC 7744
[29] = tested on: Salmonella typhimurium KCTC 1926
Escherichia coli BW25113 = tested on: Escherichia coli BW25113
[30] = tested on: Trichosporon beigelii KCTC 7707
[31] = tested on: Aspergillus flavus KCTC 6905
[32] = tested on: Staphylococcus epidermidis KCTC 1917
[33] = tested on: Streptococcus mutans KCTC 3065
[34] = tested on: Aspergillus fumigatus KCTC 6145
[35] = tested on: Salmonella enterica subsp. enterica serovar Enteritidis ATCC 13076

## CC(C)C[C@H](NC(=O)[C@H](CCC(N)=O)NC(=O)[C@@H]1CCCN1C(=O)[C@@H](NC(=O)[C@H](CCCCN)NC(=O)[C@H](Cc1ccc(O)cc1)NC(=O)[C@H](CCCCN)NC(=O)[C@H](CCCCN)NC(=O)[C@H](CC(C)C)NC(=O)[C@H](CCCN=C(N)N)NC(=O)[C@@H](N)CC(C)C)C(C)C)C(=O)O [LRLKKYKVPQL]
[1]
  MIC: 64 µM (≈ 88.7 µg/mL)
Escherichia coli UB1005
  MIC: ≥ 128 µM
[2]
  MIC: ≥ 64 µM
[3]
  MIC: ≥ 256 µM
[4]
  MIC: 640 µM (≈ 887 µg/mL)
[5]
  MIC: ≥ 256 µM

## CC(C)C[C@H](NC(=O)[C@H](Cc1ccc(O)cc1)NC(=O)[C@@H]1CCCN1C(=O)[C@@H]1CCCN1C(=O)[C@H](CCCN=C(N)N)NC(=O)[C@@H]1CCCN1C(=O)[C@H](CCCN=C(N)N)NC(=O)[C@H](CCCN=C(N)N)NC(=O)[C@@H](N)CCCN=C(N)N)C(=O)N1CCC[C@H]1C(=O)N1CCC[C@H]1C(=O)N[C@@H](CCCN=C(N)N)C(=O)N[C@@H](CCCN=C(N)N)C(=O)N1CCC[C@H]1C(=O)N1CCC[C@H]1C(=O)O [RRRPRPPYLPPRRPP]
[6]
  MIC: > 64 µM
[7]
  MIC: ≥ 32 µM
Escherichia coli ML-35
  MIC: ≥ 32 µM
Bacillus megaterium Bm11
  MIC: ≥ 32 µM
[8]
  MIC: 8 µM (≈ 15.3 µg/mL)
Escherichia coli D21
  MIC: 16 µM (≈ 30.6 µg/mL)

## CC[C@H](C)[C@H](NC(=O)[C@H](CC(C)C)NC(=O)[C@H](CCCCN)NC(=O)[C@H](CCCCN)NC(=O)[C@@H](NC(=O)[C@H](CC(C)C)NC(=O)[C@H](CCCCN)NC(=O)[C@@H]1CCCN1C(=O)[C@@H](NC(=O)[C@H](CC(C)C)NC(=O)[C@H](CCCCN)NC(=O)[C@H](Cc1ccccc1)NC(=O)[C@@H](N)Cc1ccccc1)[C@@H](C)CC)C(C)C)C(=O)N[C@@H](CCCCN)C(=O)N[C@@H](C)C(=O)N[C@@H](Cc1ccccc1)C(=O)N[C@@H](CCCCN)C(N)=O [FFKLIPKLVKKLIKAFK]
[1]
  MIC: 1.2 µM (≈ 2.47 µg/mL)
[6]
  MIC: 2.3 µM (≈ 4.74 µg/mL)
[9]
  MIC: 4.7 µM (≈ 9.69 µg/mL)
[10]
  MIC: 1.2 µM (≈ 2.47 µg/mL)
[11]
  MIC: 2.3 µM (≈ 4.74 µg/mL)
[4]
  MIC: 2.3 µM (≈ 4.74 µg/mL)
[12]
  MIC: 4.7 µM (≈ 9.69 µg/mL)
[13]
  MIC: 4.7 µM (≈ 9.69 µg/mL)
Candida krusei ATCC 6258
  MIC: 4.7 µM (≈ 9.69 µg/mL)

## CC(C)[C@H](NC(=O)[C@H](C)NC(=O)[C@H](C)NC(=O)CNC(=O)[C@@H]1CCCN1)C(=O)N[C@@H](Cc1ccccc1)C(=O)N[C@@H](CCCCN)C(=O)O [PGAAVFK]
[14]
  MIC: 12 µM (≈ 8.27 µg/mL)
[15]
  MIC: 12 µM (≈ 8.27 µg/mL)
[16]
  MIC: ≥ 36 µM
[17]
  MIC: ≥ 36 µM

## CC[C@H](C)[C@H](NC(=O)[C@H](C)NC(=O)[C@H](CCCCN)NC(=O)[C@@H](NC(=O)[C@H](CC(C)C)NC(=O)[C@H](C)NC(=O)[C@H](CCCCN)NC(=O)[C@H](Cc1ccccc1)NC(=O)[C@@H](NC(=O)[C@H](C)NC(=O)[C@H](CCCCN)NC(=O)CNC(=O)[C@@H](NC(=O)[C@H](CCCCN)NC(=O)[C@@H](NC(=O)[C@@H](NC(=O)[C@H](Cc1ccccc1)NC(=O)[C@H](CCCCN)NC(=O)[C@H](CC(C)C)NC(=O)[C@H](CC(C)C)NC(=O)[C@@H](N)CCCCN)C(C)C)[C@@H](C)O)C(C)C)[C@@H](C)CC)[C@@H](C)CC)C(=O)O [KLLKFVTKVGKAIFKALIKAI]
Methylobacterium sp.
  MIC: 3 µM (≈ 6.99 µg/mL)
Xanthomonas citri
  MIC: 3 µM (≈ 6.99 µg/mL)
[18]
  MIC: 3 µM (≈ 6.99 µg/mL)
[19]
  MIC: 3 µM (≈ 6.99 µg/mL)

## CC(C)C[C@H](NC(=O)[C@H](CO)NC(=O)[C@H](CCCN=C(N)N)NC(=O)[C@H](CCCCN)NC(=O)[C@@H](NC(=O)[C@@H](NC(=O)CNC(=O)[C@H](CCCN=C(N)N)NC(=O)[C@H](Cc1cnc[nH]1)NC(=O)[C@H](Cc1c[nH]c2ccccc12)NC(=O)[C@H](Cc1ccccc1)NC(=O)[C@H](Cc1cnc[nH]1)NC(=O)[C@H](Cc1ccc(O)cc1)NC(=O)[C@@H](N)Cc1ccc(O)cc1)C(C)C)[C@@H](C)O)C(=O)N[C@@H](CO)C(=O)N1CCC[C@H]1C(=O)N[C@@H](Cc1cnc[nH]1)C(=O)N[C@@H](CCCN=C(N)N)C(=O)N1CCC[C@H]1C(=O)N[C@@H](CCCN=C(N)N)C(=O)O [YYHFWHRGVTKRSLSPHRPR]
Bacillus subtilis
  MIC: 6 µM (≈ 15.5 µg/mL)
[20]
  MIC: 6 µM (≈ 15.5 µg/mL)
[21]
  MIC: 30 µM (≈ 77.4 µg/mL)
[22]
  MIC: 30 µM (≈ 77.4 µg/mL)
[23]
  MIC: 6 µM (≈ 15.5 µg/mL)
[11]
  MIC: 8 µM (≈ 20.6 µg/mL)
Escherichia coli
  MIC: 6 µM (≈ 15.5 µg/mL)
[8]
  MIC: 8 µM (≈ 20.6 µg/mL)
[24]
  MIC: 15 µM (≈ 38.7 µg/mL)
[25]
  MIC: 6 µM (≈ 15.5 µg/mL)

## CC(C)C[C@H](NC(=O)[C@H](CCCCN)NC(=O)[C@H](CC(C)C)NC(=O)[C@H](CC(N)=O)NC(=O)[C@H](CC(C)C)NC(=O)[C@H](CCCCN)NC(=O)[C@H](CS)NC(=O)[C@@H]1CCCN1C(=O)[C@@H](N)Cc1ccc(O)cc1)C(=O)NCC(=O)N[C@@H](CCCCN)C(=O)N[C@H](C(=O)N1CCC[C@H]1C(=O)N[C@@H](Cc1ccccc1)C(=O)N[C@@H](Cc1cnc[nH]1)C(N)=O)C(C)C [YPCKLNLKLGKVPFH]
[26]
  MIC: 2.5 µM (≈ 4.39 µg/mL)
[27]
  MIC: 5 µM (≈ 8.78 µg/mL)
[28]
  MIC: 5 µM (≈ 8.78 µg/mL)
[29]
  MIC: 5 µM (≈ 8.78 µg/mL)
Escherichia coli BW25113
  MIC: 5 µM (≈ 8.78 µg/mL)
[9]
  MIC: 10 µM (≈ 17.6 µg/mL)
[30]
  MIC: 5 µM (≈ 8.78 µg/mL)
[11]
  MIC: 10 µM (≈ 17.6 µg/mL)
[31]
  MIC: 10 µM (≈ 17.6 µg/mL)
[32]
  MIC: 5 µM (≈ 8.78 µg/mL)
[33]
  MIC: 5 µM (≈ 8.78 µg/mL)
[34]
  MIC: 10 µM (≈ 17.6 µg/mL)
[35]
  MIC: 5 µM (≈ 8.78 µg/mL)
[25]
  MIC: 2.5 µM (≈ 4.39 µg/mL)
